Reference: patent publication US10933059B2, “Combination, application thereof and treatment method” (KANGPU BIOPHARMACEUTICALS, LTD., priority 2016, dated 2021)
Like-named read-outs stand apart in the source and are kept apart here.

Legend:
Vcap cells = experiment: CTG cell proliferation assay on Vcap cells (compounds alone or in combination, 5 days); format: cell-based; conditions: for viability at 0.1 µM / viability at 1 µM / viability at 10 µM: Homo sapiens, VCaP, 120 h; for Vcap cell proliferation inhibition rate: 5 days
Protocol: In vitro test of the inhibition effect of the compound in combination with androgen receptor pathway modulators on the prostate cancer cell proliferation.
Inhibition effect of the compounds such as B101, B102, B103, B104, B105, B106, C111 and the like, androgen receptor pathway modulators, hormone compounds, alone or in combination with each other on the prostate cancer cell proliferation were tested on Vcap cells (androgen receptor (+) prostate cancer cells) (ATCC, catalogue number CRL-2876). The specific experimental operation was as follows: 5×10^3 Vcap cells per well were inoculated into 96-well plates with transparent bottom and white wall (Corning, catalogue number CLS3903) containing the specific medium, and were cultured in a 37° C., 5% CO2 incubator for 24 hours. The tested compounds and the androgen receptor pathway modulators were prepared to a 150 mM stocking solution with DMSO (Sigma, catalogue number 276855), diluted with culture medium to the desired concentrations (the final concentration of DMSO is 0.2%), and then added to each well, 2 wells/concentration, followed by being incubated in a 37° C., 5% CO2 incubator for 5 days. The tested compounds were used alone or in combination with other androgen receptor pathway modulators and/or hormone compounds respectively. […] After that, 100 μl of CellTiter-Glo® cell viability assay reagent (Promega, catalogue number G7570) was added to each well and mixed well on a vibrator for 10 minutes to induce cell lysis. The 96-well plate was placed at room temperature for 10 minutes, so as to stabilize its luminescence signal. A white bottom membrane was pasted on the bottom of the plate and the plate was tested using EnSpire.

LNCap cells = experiment: CTG cell proliferation assay on LNCap cells (method of Effect embodiment 1); format: cell-based
[1] = tested compound 0.1 μM in combination with 1 μM B101
[2] = tested compound 0.1 μM in combination with 1 μM B105
[3] = tested compound 1 μM in combination with 1 μM B101
[4] = tested compound 1 μM in combination with 1 μM B105
[5] = tested compound 10 μM in combination with 1 μM B101
[6] = tested compound 10 μM in combination with 1 μM B105
[7] = tested compound alone, 0.1 μM, read-out: Survival rate of Vcap cells
[8] = tested compound alone, 1 μM, read-out: Survival rate of Vcap cells
[9] = tested compound alone, 10 μM, read-out: Survival rate of Vcap cells
[10] = tested compound 0.1 μM in combination with 1 μM ARN-509
[11] = tested compound 0.1 μM in combination with 1 μM Abiraterone acetate
[12] = tested compound 0.1 μM in combination with 1 μM Enzalutamide
[13] = tested compound 0.1 μM in combination with 1 μM Galeterone
[14] = tested compound 0.1 μM in combination with 1 μM ODM-201
[15] = tested compound 1 μM in combination with 1 μM ARN-509
[16] = tested compound 1 μM in combination with 1 μM Abiraterone acetate
[17] = tested compound 1 μM in combination with 1 μM Enzalutamide
[18] = tested compound 1 μM in combination with 1 μM Galeterone
[19] = tested compound 1 μM in combination with 1 μM ODM-201
[20] = tested compound 10 μM in combination with 1 μM ARN-509
[21] = tested compound 10 μM in combination with 1 μM Abiraterone acetate
[22] = tested compound 10 μM in combination with 1 μM Enzalutamide
[23] = tested compound 10 μM in combination with 1 μM Galeterone
[24] = tested compound 10 μM in combination with 1 μM ODM-201
[25] = read-out: Survival rate of Vcap cells, tested compound alone, 0.1 μM

## CNC(=O)c1ccc(N2C(=S)N(c3cnc(C#N)c(C(F)(F)F)c3)C(=O)C23CCC3)cc1F [ARN-509, reference compound]
Vcap cells; [1]
  Survival rate of Vcap cells: 42.7%
Vcap cells; [2]
  Survival rate of Vcap cells: 45.3%
Vcap cells; [3]
  Survival rate of Vcap cells: 39.2%
Vcap cells; [4]
  Survival rate of Vcap cells: 38.6%
Vcap cells; [5]
  Survival rate of Vcap cells: 38.4%
Vcap cells; [6]
  Survival rate of Vcap cells: 38.0%
LNCap cells; tested compound alone, 0.1 μM
  Survival rate of LNCap cells: 105.2%
LNCap cells; tested compound alone, 1 μM
  Survival rate of LNCap cells: 86.7%
LNCap cells; tested compound alone, 10 μM
  Survival rate of LNCap cells: 60.2%

## CC(=O)O[C@H]1CC[C@@]2(C)C(=CC[C@@H]3[C@@H]2CC[C@]2(C)C(c4cccnc4)=CC[C@@H]32)C1 [Abiraterone acetate, reference compound]
Vcap cells; [7]
  viability at 0.1 µM: 106%
Vcap cells; [8]
  viability at 1 µM: 91.7%
Vcap cells; [1]
  Survival rate of Vcap cells: 72.2%
Vcap cells; [2]
  Survival rate of Vcap cells: 77.3%
Vcap cells; [3]
  Survival rate of Vcap cells: 70.5%
Vcap cells; [4]
  Survival rate of Vcap cells: 70.7%
Vcap cells; [5]
  Survival rate of Vcap cells: 66.7%
Vcap cells; [6]
  Survival rate of Vcap cells: 69.2%
LNCap cells; tested compound alone, 0.1 μM
  Survival rate of LNCap cells: 109.2%
LNCap cells; tested compound alone, 1 μM
  Survival rate of LNCap cells: 90.7%
LNCap cells; tested compound alone, 10 μM
  Survival rate of LNCap cells: 45.2%

## Nc1cc(F)cc2c1CN(C1CCC(=O)NC1=O)C2=O (centres unmarked) [B101]
Vcap cells; [7]
  viability at 0.1 µM: 77.7%
Vcap cells; [8]
  viability at 1 µM: 65.4%
Vcap cells; [9]
  viability at 10 µM: 64.7%
Vcap cells; [10]
  Survival rate of Vcap cells: 29.3%
Vcap cells; [11]
  Survival rate of Vcap cells: 61.8%
Vcap cells; [12]
  Survival rate of Vcap cells: 30.6%
Vcap cells; [13]
  Survival rate of Vcap cells: 38.6%
Vcap cells; [14]
  Survival rate of Vcap cells: 43.8%
Vcap cells; [15]
  Survival rate of Vcap cells: 24.3%
Vcap cells; [16]
  Survival rate of Vcap cells: 56.6%
Vcap cells; [17]
  Survival rate of Vcap cells: 25.2%
Vcap cells; [18]
  Survival rate of Vcap cells: 34.4%
Vcap cells; [19]
  Survival rate of Vcap cells: 37.1%
Vcap cells; [20]
  Survival rate of Vcap cells: 24.5%
Vcap cells; [21]
  Survival rate of Vcap cells: 52.9%
Vcap cells; [22]
  Survival rate of Vcap cells: 24.4%
Vcap cells; [23]
  Survival rate of Vcap cells: 32.5%
Vcap cells; [24]
  Survival rate of Vcap cells: 32.5%
LNCap cells; [10]
  Survival rate of LNCap cells: 86.7%
LNCap cells; [11]
  Survival rate of LNCap cells: 82.4%
LNCap cells; [12]
  Survival rate of LNCap cells: 59.3%
LNCap cells; [13]
  Survival rate of LNCap cells: 76.3%
LNCap cells; [15]
  Survival rate of LNCap cells: 46.3%
LNCap cells; [16]
  Survival rate of LNCap cells: 46.2%
LNCap cells; [17]
  Survival rate of LNCap cells: 34.1%
LNCap cells; [18]
  Survival rate of LNCap cells: 43.6%
LNCap cells; [20]
  Survival rate of LNCap cells: 32.4%
LNCap cells; [21]
  Survival rate of LNCap cells: 33.2%
LNCap cells; [22]
  Survival rate of LNCap cells: 27.1%
LNCap cells; [23]
  Survival rate of LNCap cells: 31.4%
LNCap cells; tested compound alone, 0.1 μM
  Survival rate of LNCap cells: 99.6%
LNCap cells; tested compound alone, 1 μM
  Survival rate of LNCap cells: 63%
LNCap cells; tested compound alone, 10 μM
  Survival rate of LNCap cells: 42.4%

## [2H][C@]1(N2Cc3c(N)cc(F)cc3C2=O)CCC(=O)NC1=O [B105]
Vcap cells; B105 or C111 0.05 μM alone
  Vcap cell proliferation inhibition rate: 17.4%
Vcap cells; B105 or C111 0.14 μM alone
  Vcap cell proliferation inhibition rate: 23.9%
Vcap cells; B105 or C111 1.23 μM alone
  Vcap cell proliferation inhibition rate: 26.3%
Vcap cells; B105 or C111 3.70 μM alone
  Vcap cell proliferation inhibition rate: 25.9%
Vcap cells; B105 or C111 11.11 μM alone
  Vcap cell proliferation inhibition rate: 27.0%
Vcap cells; B105 or C111 33.33 μM alone
  Vcap cell proliferation inhibition rate: 27.4%
Vcap cells; B105 or C111 100.00 μM alone
  Vcap cell proliferation inhibition rate: 25.1%
Vcap cells; B105 or C111 300.00 μM alone
  Vcap cell proliferation inhibition rate: 22.8%
Vcap cells; [7]
  viability at 0.1 µM: 83.3%
Vcap cells; [8]
  viability at 1 µM: 72.5%
Vcap cells; [9]
  viability at 10 µM: 72.7%
Vcap cells; [10]
  Survival rate of Vcap cells: 30.6%
Vcap cells; [11]
  Survival rate of Vcap cells: 65.0%
Vcap cells; [12]
  Survival rate of Vcap cells: 31.6%
Vcap cells; [13]
  Survival rate of Vcap cells: 40.9%
Vcap cells; [14]
  Survival rate of Vcap cells: 43.3%
Vcap cells; [15]
  Survival rate of Vcap cells: 28.0%
Vcap cells; [16]
  Survival rate of Vcap cells: 57.1%
Vcap cells; [17]
  Survival rate of Vcap cells: 27.5%
Vcap cells; [18]
  Survival rate of Vcap cells: 36.7%
Vcap cells; [19]
  Survival rate of Vcap cells: 36.6%
Vcap cells; [20]
  Survival rate of Vcap cells: 27.0%
Vcap cells; [21]
  Survival rate of Vcap cells: 58.0%
Vcap cells; [22]
  Survival rate of Vcap cells: 27.5%
Vcap cells; [23]
  Survival rate of Vcap cells: 36.3%
Vcap cells; [24]
  Survival rate of Vcap cells: 32.2%
LNCap cells; [10]
  Survival rate of LNCap cells: 82.6%
LNCap cells; [11]
  Survival rate of LNCap cells: 83.7%
LNCap cells; [12]
  Survival rate of LNCap cells: 57.5%
LNCap cells; [13]
  Survival rate of LNCap cells: 73.4%
LNCap cells; [15]
  Survival rate of LNCap cells: 44.7%
LNCap cells; [16]
  Survival rate of LNCap cells: 47.9%
LNCap cells; [17]
  Survival rate of LNCap cells: 32%
LNCap cells; [18]
  Survival rate of LNCap cells: 40.6%
LNCap cells; [20]
  Survival rate of LNCap cells: 32.4%
LNCap cells; [21]
  Survival rate of LNCap cells: 31.7%
LNCap cells; [22]
  Survival rate of LNCap cells: 25.8%
LNCap cells; [23]
  Survival rate of LNCap cells: 30.6%
LNCap cells; tested compound alone, 0.1 μM
  Survival rate of LNCap cells: 102.9%
LNCap cells; tested compound alone, 1 μM
  Survival rate of LNCap cells: 61.5%
LNCap cells; tested compound alone, 10 μM
  Survival rate of LNCap cells: 40.8%

## CC(O)c1cc(C(=O)N[C@@H](C)Cn2ccc(-c3ccc(C#N)c(Cl)c3)n2)[nH]n1 (some centres unmarked) [ODM-201, reference compound]
Vcap cells; [25]
  viability at 0.1 µM: 90.7%
Vcap cells; read-out: Survival rate of Vcap cells, tested compound alone, 10 μM
  viability at 10 µM: 75.4%
Vcap cells; [8]
  viability at 1 µM: 69%
Vcap cells; tested compound alone, 1 μM
  Survival rate of Vcap cells: 69.0%

## C[C@]12C=CC(=O)C=C1CC[C@@H]1[C@@H]2C(=O)C[C@@]2(C)[C@H]1CC[C@]2(O)C(=O)CO [Prednisone, reference compound]
Vcap cells; [7]
  viability at 0.1 µM: 99.1%
Vcap cells; [8]
  viability at 1 µM: 99.7%
Vcap cells; [9]
  viability at 10 µM: 99.4%
Vcap cells; [1]
  Survival rate of Vcap cells: 84.0%
Vcap cells; [2]
  Survival rate of Vcap cells: 87.5%
Vcap cells; [3]
  Survival rate of Vcap cells: 76.9%
Vcap cells; [4]
  Survival rate of Vcap cells: 80.6%
Vcap cells; [5]
  Survival rate of Vcap cells: 75.3%
Vcap cells; [6]
  Survival rate of Vcap cells: 79.7%

## CC(=O)S[C@@H]1CC2=CC(=O)CC[C@]2(C)[C@H]2CC[C@@]3(C)[C@@H](CC[C@@]34CCC(=O)O4)[C@H]12 [Spironolactone, reference compound]
Vcap cells; [7]
  viability at 0.1 µM: 100%
Vcap cells; [8]
  viability at 1 µM: 91.3%
Vcap cells; [9]
  viability at 10 µM: 72.5%
Vcap cells; [1]
  Survival rate of Vcap cells: 85.3%
Vcap cells; [2]
  Survival rate of Vcap cells: 87.2%
Vcap cells; [3]
  Survival rate of Vcap cells: 77.3%
Vcap cells; [4]
  Survival rate of Vcap cells: 79.6%
Vcap cells; [5]
  Survival rate of Vcap cells: 65.9%
Vcap cells; [6]
  Survival rate of Vcap cells: 64.5%

## CC(O)(CS(=O)(=O)c1ccc(F)cc1)C(=O)Nc1ccc(C#N)c(C(F)(F)F)c1 (centres unmarked) [bicalutamide, reference compound]
Vcap cells; [25]
  viability at 0.1 µM: 99.2%
Vcap cells; [8]
  viability at 1 µM: 94%
Vcap cells; [9]
  viability at 10 µM: 92%
Vcap cells; [1]
  Survival rate of Vcap cells: 70.5%
Vcap cells; [2]
  Survival rate of Vcap cells: 75.9%
Vcap cells; [3]
  Survival rate of Vcap cells: 66.5%
Vcap cells; [4]
  Survival rate of Vcap cells: 67.3%
Vcap cells; [5]
  Survival rate of Vcap cells: 64.0%
Vcap cells; [6]
  Survival rate of Vcap cells: 63.4%
